In brackets after ≈: the same amount, converted by molar mass. Peptide text beside a SMILES is read from it. * marks the point of attachment. Octanoyl = CCCCCCCC(=O)*; X1 = O=C(/C=C/c1ccccc1)*

The subject of experiment [1] is K. pneumoniae ATCC 700603. In kind it is cell-based, Klebsiella pneumoniae. As to conditions: ATCC 700603, 18 h. On the procedure: (§1) Examination of antimicrobial activity of the test compounds was conducted on reference strains of bacteria assigned to ESKAPE group of pathogens: Enterococcus faecium ATCC 700221, Klebsiella pneumoniae ATCC 700603, Acinetobacter baumannii ATCC BAA-1605, Pseudomonas aeruginosa ATCC 9027, Klebsiella aerogenes ATCC 13048 (formerly Enterobacter aerogenes) and reference strains of Staphylococcus aureus, namely: S. aureus ATCC 25923, S. aureus ATCC 6538, S. aureus ATCC 33591 (MRSA), S. aureus ATCC 9144 and S. aureus ATCC 12598. All the strains were stored at −80 °C in Roti®-Store cryo vials (Carl Roth GmbH, Karlsruhe, Germany) and before the tests were transferred into fresh Mueller-Hinton Medium (BioMaxima, Lublin, Poland) and incubated for 24 h at 37 °C. Subsequently, each bacterial inoculum was seeded on Mueller-Hinton Agar plates (BioMaxima) and incubated again for 24 h. The cultures prepared in this way were used in further antimicrobial assays and prepared as described above. The MIC values were determined by the broth microdilution method according to Clinical and Laboratory Standards Institute Protocol. For this purpose, initial inoculums of bacteria (0.5 × 10^5 colony forming unit (CFU)/mL) in Mueller–Hinton Broth were exposed to the ranging concentrations of compounds (0.5–256 µg/mL) and incubated for 18 h at 37 °C. The experiments were conducted on 96-well microtiter plates, with a final volume of 100 µL. Cell densities were adjusted spectrophotometrically (Multiskan™ GO Microplate Spectrophotometer, Thermo Scientific) at 600 nm. The MICs were taken as the lowest drug concentration at which a visible growth of microorganisms was inhibited. All experiments were conducted in triplicate and included positive (growth) and negative (sterility) controls.

In experiment [2] the test system is reference strains of S. aureus. In kind it is cell-based, Staphylococcus aureus. As to conditions: reference strains of, 24 h. The procedure: as §1, with “For this purpose, initial inoculums of bacteria (0.5 × 10^5 colony forming unit (CFU)/mL) in Mueller–Hinton Broth were exposed to the ranging concentrations of compounds (0.5–256 µg/mL) and incubated for 18 h at 37 °C.” left out

The test system of experiment [3] is K. aerogenes ATCC 13048. In kind it is cell-based, Klebsiella aerogenes. As to conditions: ATCC 13048, 18 h. On the procedure:
as §1

Experiment [4] deals with biofilm of S. aureus strains. Put plainly: MBEC over reference strains of S. aureus. In kind it is cell-based, Staphylococcus aureus. On the procedure:
(§2) The MBECs values were determined according to the method reported previously. Briefly, 24-h cultures of S. aureus, namely: S. aureus ATCC 25923, S. aureus ATCC 6538, S. aureus ATCC 33591 (MRSA), S. aureus ATCC 9144 and S. aureus ATCC 12598 were diluted to a concentration of 0.5 × 10^7 CFU/mL and added to the test wells of polystyrene microdilution flat-bottom plates. After 24-h of incubation at 37 °C, the wells were rinsed three times with PBS to remove non-adherent cells. Subsequently, 100 μL of the test compounds over a concentration range 0.5–256 µg/mL were added to each well and incubated again for 24 h at 37 °C. After this period, 20 μL of the resazurin (7-hydroxy-3H-phenoxazin-3-one-10-oxide, 4 mg/mL) solution was added to each well. After 1 h of incubation, the MBECs were read out. The determined values were recorded as the lowest concentration at which the reduction of resazurin (from blue to pink) was lower or equal to 10 ± 0.5% as compared to the positive (100%) and negative (0%) controls. All experiments were performed in triplicate.

Experiment [5] concerns S. aureus ATCC 6538. In kind it is cell-based, Staphylococcus aureus. As to conditions: ATCC 6538, 18 h. The procedure: as §1
The test system of experiment [6] is S. aureus ATCC 9144. In kind it is cell-based, Staphylococcus aureus. The settings on record: ATCC 9144, 18 h. On the procedure: as §1
Experiment [7] concerns S. aureus ATCC 25923. In kind it is cell-based, Staphylococcus aureus. The settings on record: ATCC 25923, 18 h. On the procedure: as §1
In experiment [8] the test system is S. aureus ATCC 33591 (MRSA). In kind it is cell-based, Staphylococcus aureus. As to conditions: ATCC 33591, 18 h. On the procedure:
as §1

Experiment [9] has as its system S. aureus ATCC 12598. In kind it is cell-based, Staphylococcus aureus. As to conditions: ATCC 12598, 18 h. On the procedure: as §1
Experiment [10] concerns A. baumannii ATCC BAA-1605. In kind it is cell-based, Acinetobacter baumannii. The settings on record: ATCC BAA-1605, 18 h. On the procedure:
as §1

The test system of experiment [11] is S. aureus ATCC 25923 biofilm. In kind it is cell-based, Staphylococcus aureus. The settings on record: ATCC 25923, 24 h. On the procedure: as §2
For experiment [12], the system named is S. aureus ATCC 12598 biofilm. In kind it is cell-based, Staphylococcus aureus. As to conditions: ATCC 12598, 24 h. The procedure:
as §2

The test system of experiment [13] is S. aureus ATCC 9144 biofilm. In kind it is cell-based, Staphylococcus aureus. As to conditions: ATCC 9144, 24 h. On the procedure:
as §2

Experiment [14] concerns S. aureus ATCC 6538 biofilm. In kind it is cell-based, Staphylococcus aureus. The settings on record: ATCC 6538, 24 h. On the procedure:
as §2

The test system of experiment [15] is S. aureus ATCC 33591 (MRSA) biofilm. In kind it is cell-based, Staphylococcus aureus. The settings on record: ATCC 33591, 24 h. On the procedure:
as §2

Experiment [16] concerns E. faecium ATCC 700221. In kind it is cell-based, Enterococcus faecium. The settings on record: ATCC 700221, 18 h. On the procedure:
as §1

Experiment [17] relates to ESKAPE strains. In kind it is cell-based. The settings on record: 24 h. On the procedure: as §1, with “For this purpose, initial inoculums of bacteria (0.5 × 10^5 colony forming unit (CFU)/mL) in Mueller–Hinton Broth were exposed to the ranging concentrations of compounds (0.5–256 µg/mL) and incubated for 18 h at 37 °C.” left out, “The MICs were taken as the lowest drug concentration at which a visible growth of microorganisms was inhibited. All experiments were conducted in triplicate and included positive (growth) and negative (sterility) controls.” left out

Experiment [18] has as its system P. aeruginosa ATCC 9027. In kind it is cell-based, Pseudomonas aeruginosa. As to conditions: ATCC 9027, 18 h. On the procedure: as §1
Experiment [19] has as its system human keratinocytes (HaCaT). In kind it is cell-based. The settings on record: 24 h. On the procedure:
The cytotoxicity of test compounds (IC50) was evaluated for human keratinocytes (HaCaT, ATCC) using classic MTT assay on 96-well plates. In this assay, a colorimetric determination of the cell metabolic activity was carried out. Specifically, the color intensity reflects the number of live cells that can be measured spectrophotometrically. […] A day after plating 500 cells per well, a series of concentrations (0.5–500 μg/mL) of the test compounds were added. Dimethyl sulfoxide (DMSO) was used as a control in cells at a final concentration of 1.0% (v/v), which was related to the maximal concentration of the solvent compounds used in the experiment. After 24 h of incubation with test compounds, a medium containing 1 mg/mL of MTT was added up to a final concentration of 0.5 mg/mL and subsequently incubated at 37 °C for 4 h. Then, the medium was aspirated and the formazan product was solubilized with DMSO. The background absorbance at 630 nm was subtracted from that at 570 nm for each well (Epoch, BioTek Instruments, Winooski, VT, USA). Six replicates were conducted for each concentration. All experiments were repeated at least twice and the resulting IC50 values were calculated with a GraFit 7 software (v. 7.0, Erithacus, Berkley, CA, USA).

As to `CCCCCCCC(=O)N[C@@H](CCCCN)C(=O)N[C@@H](CCCNC(=N)N)C(=O)N[C@H](C(=O)N[C@H](C(=O)N[C@@H](CCC(N)=O)C(=O)N[C@@H](CCCNC(=N)N)C(=O)N[C@H](C(=O)N[C@@H](CCCCN)C(=O)N[C@@H](CC(=O)O)C(=O)N[C@@H](Cc1ccccc1)C(=O)N[C@@H](CC(C)C)C(=O)N[C@@H](CCCNC(=N)N)C(N)=O)[C@@H](C)CC)C(C)C)[C@@H](C)CC` [IV, C8-KR12-NH2] (Octanoyl-KRIVQRIKDFLR-NH2), the minimal inhibitory concentration (MIC) in experiment [1], in experiment [3], in [5], in [6], in [7] and in experiment [8] was 2 µg/mL (≈ 1.18 µM) in each case. In addition, the minimal inhibitory concentration (MIC) (commonly the lowest concentration that inhibits growth of the organism) in [9] turned out to be 4 µg/mL (≈ 2.36 µM); in experiment [10], 2 µg/mL (≈ 1.18 µM); in experiment [16], 1 µg/mL (≈ 0.589 µM); in experiment [18], 2 µg/mL (≈ 1.18 µM). Besides, the “GM (geometric mean of the MIC values against S. aureus)” value in experiment [2] came out at 2.30 µg/mL. The compound also displayed an MBEC range in experiment [4] of 4 to 16 µg/mL. Besides, the MBEC amounted to 8 µg/mL in experiment [11]; 4 µg/mL in [12]; 4 µg/mL in experiment [13]; 16 µg/mL in [14]; 4 µg/mL in experiment [15]. In [17], the MIC range is 1 to 4 µg/mL. Moreover, in experiment [19], the IC50 (in general, the concentration needed to halve the response being measured) is 3.23 µg/mL (≈ 1.9 µM).
Take `CC[C@H](C)[C@H](NC(=O)[C@H](CCCNC(=N)N)NC(=O)[C@H](CCC(N)=O)NC(=O)[C@@H](NC(=O)[C@@H](NC(=O)[C@H](CCCNC(=N)N)NC(=O)[C@H](CCCCN)NC(=O)/C=C/c1ccccc1)[C@@H](C)CC)C(C)C)C(=O)N[C@@H](CCCCN)C(=O)N[C@@H](CC(=O)O)C(=O)N[C@@H](Cc1ccccc1)C(=O)N[C@@H](CC(C)C)C(=O)N[C@@H](CCCNC(=N)N)C(N)=O` [IX, trans-Cinnamic acid-KR12-NH2] (X1-KRIVQRIKDFLR-NH2): the MIC in [1] was 4 µg/mL (≈ 2.35 µM); in [3], 4 µg/mL (≈ 2.35 µM); in [5], 2 µg/mL (≈ 1.18 µM); in [6], 4 µg/mL (≈ 2.35 µM); in experiment [7], 8 µg/mL (≈ 4.7 µM); in experiment [8], 4 µg/mL (≈ 2.35 µM). Further, the MIC came out at 4 µg/mL (≈ 2.35 µM) in [9], 4 µg/mL (≈ 2.35 µM) in [10], 1 µg/mL (≈ 0.588 µM) in [16] and 4 µg/mL (≈ 2.35 µM) in experiment [18]. Moreover, the “GM (geometric mean of the MIC values against S. aureus)” value in experiment [2] is 4.00 µg/mL. Besides, the MBEC in [11] is recorded as 32 µg/mL; in experiment [12], 4 µg/mL; in [13], 8 µg/mL; in experiment [14], 8 µg/mL; in [15] it was 16 µg/mL. For the same compound, in [17], the MIC range was 1 to 8 µg/mL. Also, the 50% inhibitory concentration (IC50) in [19] is recorded as 10.00 µg/mL (≈ 5.88 µM).

(Values after paper PMC7036753, “Lipidated Analogs of the LL-37-Derived Peptide Fragment KR12—Structural Analysis, Surface-Active Properties and Antimicrobial Activity” (International Journal of Molecular Sciences, 2020).)
